According to PubChem BioAssay AID651807 (Broad Institute, 2012):
Values joined by “and” are separate entries in the source; they are usually repeats but may differ in a detail not shown here. Equal entries are not always repeated. Inconclusive results are not listed. Active and inactive are the calls of the source.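 Rule for the calls: active = fitted curve rises past 40% activation at or below the top valid concentration, in every replicate test; inconclusive = replicate tests give mixed outcomes; inactive = all replicate tests inactive, or signal moves in the opposite direction.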

Tested on: ARE-bla HepG2, beta-lactamase FRET ratio 460/530
Experiment: activators of Nrf2/ARE beta-lactamase reporter, dose response, Keap1-Nrf2 interaction inhibitor project, cell-based, ARE-bla HepG2, dry powder, set 4 (AID 651807)
Conditions: not given

Compound | AC40 [µM]
Cc1ccc(S(=O)(=O)Nc2cc(C(C(=O)OC(C)C)C(=O)C(F)(F)F)c(O)c3ccccc23)cc1 (stereo not drawn) | 9.52
O=C(NCCc1ccccc1)c1ccccc1C(=O)NC[C@@H]1c2ccccc2CCN1C(=O)C1CCCCC1C(=O)O (stereo partly drawn) | 17
Cc1cc(C)c(S(=O)(=O)Nc2nc(C(C(=O)OC(C)C)C(=O)C(F)(F)F)nc3ccccc23)c(C)c1 (stereo not drawn) | 27.3
NC(=O)c1ccccc1C(=O)NC[C@@H]1c2ccccc2CCN1C(=O)[C@@H]1CCCC[C@@H]1C(=O)O | 48.7
O=C(O)C1CCCCC1C(=O)N1CCc2ccccc2C1CN1C(=O)[C@H]2CCCC[C@H]2C1=O (stereo partly drawn) | 29.1
O=S(=O)(Nc1nc(NCC2CCCCC2)nc2ccccc12)c1ccccc1 | 32.2
COc1ccc(CCN=C2C=C(NS(=O)(=O)c3c(C)cc(C)cc3C)c3ccccc3C2=O)cc1 | 10.6
Cc1ccc(S(=O)(=O)NNc2nc(N3CC(O)CC3C(=O)O)nc3ccccc23)cc1 (stereo not drawn) | 13.5
Cc1ccccc1S(=O)(=O)Nc1cc(C(C(=O)OC(C)C)C(=O)C(F)(F)F)c(O)c2ccccc12 (stereo not drawn) | 8.84
CC(C)OC(=O)C(C(=O)C(F)(F)F)c1cc(NS(=O)(=O)c2ccccc2)c2ccccc2c1O (stereo not drawn) | 27.2
O=C(O)C1CCCCC1C(=O)N1CCc2ccccc2[C@H]1C(=O)NC12CC3CC(CC(C3)C1)C2 (stereo partly drawn) | 45.6
O=C1c2ccccc2C(=O)N1C[C@@H]1c2ccccc2CCN1C(=O)OCc1ccccc1 | 38.2
Cc1ccc(S(=O)(=O)NNc2nc(C(C(=O)OC(C)C)C(=O)C(F)(F)F)nc3ccccc23)cc1 (stereo not drawn) | 33
Cc1cc(C)c(S(=O)(=O)Nc2cc(C(C(=O)OCc3ccccc3)C(=O)OCc3ccccc3)c(O)c3ccccc23)c(C)c1 | 32.7
O=C(O)c1ccccc1C(=O)N1CCc2ccccc2C1CN1C(=O)c2ccccc2C1=O (stereo not drawn) | 41.3
Cc1cc(C)c(S(=O)(=O)Nc2cc(C(C(=O)OC(C)C)C(=O)C(F)(F)F)c(O)c3ccccc23)c(C)c1 (stereo not drawn) | 4.2
Cc1ccc(S(=O)(=O)Nc2cc(C(C(=O)OC(C)C)C(=O)C(F)(F)F)c(O)c3ccccc23)c(C)c1 (stereo not drawn) | 10.5

Tested on: not listed separately
Experiment: as above
Conditions: ARE-bla HepG2, beta-lactamase FRET ratio 460/530; at 16 µM (top of the series)

Compound | activation
O=C1c2ccccc2C(=O)N1CC1c2ccccc2CCN1C(=O)Cc1ccccc1 (stereo not drawn) | 14.7% (inactive)

Same assay, conditions: ARE-bla HepG2, beta-lactamase FRET ratio 460/530; at 68 µM (top of the series)

Compound | activation
Cc1cc(C)c(S(=O)(=O)Nc2nc(N(C)C)nc3ccccc23)c(C)c1 | -5.99% (inactive)
O=C(Cc1ccccc1)NC[C@@H]1c2ccccc2CCN1C(=O)[C@@H]1CCCC[C@@H]1C(=O)O | 6.95% (inactive)
O=C(O)C1CCCCC1C(=O)NCC1c2ccccc2CCN1C(=O)Cc1ccccc1 (stereo not drawn) | 20.2% (inactive)
O=C1c2ccccc2C(=O)N1C[C@H]1NCCc2ccccc21 | 43.8% (inactive)
O=C(O)C1CCCCC1C(=O)N1CCc2ccccc2C1CN1C(=O)c2ccccc2S1(=O)=O (stereo not drawn) | 35% (inactive)
COc1ccccc1CCNC(=O)[C@@H]1c2ccccc2CCN1C(=O)C1CCCCC1C(=O)O (stereo partly drawn) | -0.279% (inactive)
COC(=O)[C@@H]1CCCC[C@@H]1C(=O)N1CCc2ccccc2[C@H]1CN1C(=O)c2ccccc2C1=O | 25.5% (inactive)
O=C(O)C1CCCCC1C(=O)Nc1ccccc1CN1C(=O)c2ccccc2C1=O (stereo not drawn) | 6.93% (inactive)
Cc1ccc(S(=O)(=O)NC(=O)[C@@H]2c3ccccc3CCN2C(=O)[C@@H]2CCCC[C@@H]2C(=O)O)cc1 | 13.2% (inactive) and 28.7% (inactive)
O=C(NC[C@@H]1c2ccccc2CCN1C(=O)[C@@H]1CCCC[C@@H]1C(=O)O)c1ccccc1CO | 11% (inactive)
O=C(O)[C@H]1CCCC[C@H]1C(=O)N1CCc2ccccc2[C@H]1CNc1nc(Cl)nc2ccccc12 | -4.32% (inactive)
O=C(NC[C@@H]1c2ccccc2CCN1C(=O)[C@@H]1CCCC[C@@H]1C(=O)O)OCC1c2ccccc2-c2ccccc21 | -31.2% (inactive)
O=C(O)C1CCCCC1C(=O)N1CCc2ccccc2[C@H]1C(=O)NCCc1ccccc1 (stereo partly drawn) | 2.65% (inactive)
O=C1c2ccccc2C(=O)N1CC1=NCCc2ccccc21 | 9.14% (inactive)
Cc1ccc(S(=O)(=O)NC[C@@H]2c3ccccc3CCN2C(=O)[C@@H]2CCCC[C@@H]2C(=O)O)c(C)c1 | 29.9% (inactive)
O=C(O)[C@H]1CCCC[C@H]1C(=O)N1CCc2ccccc2C1CCN1C(=O)c2ccccc2C1=O (stereo partly drawn) | 17.3% (inactive)
O=C(O)C1CCCCC1C(=O)N1CCCCC1CN1C(=O)c2ccccc2C1=O (stereo not drawn) | 16.6% (inactive)
O=C(O)c1ccccc1C(=O)NC[C@@H]1c2ccccc2CCN1C(=O)[C@@H]1CCCC[C@@H]1C(=O)O | 23.5% (inactive)
O=C(NC[C@@H]1c2ccccc2CCN1C(=O)[C@@H]1CCCC[C@@H]1C(=O)O)c1ccc(CN2CCOCC2)cc1 | 13.2% (inactive)
Cc1cc(C)c(S(=O)(=O)Nc2nc(NCCO)nc3ccccc23)c(C)c1 | -10.1% (inactive)
O=C(O)[C@@H]1CCCN1C(=O)N1CCc2ccccc2[C@H]1CN1C(=O)c2ccccc2C1=O | 27% (inactive)
O=C(NC[C@@H]1c2ccccc2CCN1C(=O)[C@@H]1CCCC[C@@H]1C(=O)O)c1ccccc1 | 6.57% (inactive)
COC(=O)CNc1nc(NS(=O)(=O)c2c(C)cc(C)cc2C)c2ccccc2n1 | -4.15% (inactive)
O=C(O)[C@H]1CCCC[C@H]1C(=O)NC(CN1C(=O)c2ccccc2C1=O)c1ccccc1 (stereo partly drawn) | 25.2% (inactive)
O=C(O)CC(=O)N1CCc2ccccc2C1CN1C(=O)c2ccccc2C1=O (stereo not drawn) | 31.6% (inactive)
